Measurements taken from US6506778B2, “Acylphenylurea derivatives, a process for their preparation and their use as pharmaceuticals” (Aventis Pharma Deutschland GmbH, priority 2000, dated 2003).

Key:
[1] = biological target: T1, human glycogen phosphorylase a (Homo sapiens, UniProt P06737); assay: Glycogen phosphorylase a activity assay (reverse direction, liberation of inorganic phosphate); type: biochemical; details: 10 μM test substance; in vitro; incubated at room temperature for 40 minutes; absorption at 820 nm
T1 sequence (P06737 1-847): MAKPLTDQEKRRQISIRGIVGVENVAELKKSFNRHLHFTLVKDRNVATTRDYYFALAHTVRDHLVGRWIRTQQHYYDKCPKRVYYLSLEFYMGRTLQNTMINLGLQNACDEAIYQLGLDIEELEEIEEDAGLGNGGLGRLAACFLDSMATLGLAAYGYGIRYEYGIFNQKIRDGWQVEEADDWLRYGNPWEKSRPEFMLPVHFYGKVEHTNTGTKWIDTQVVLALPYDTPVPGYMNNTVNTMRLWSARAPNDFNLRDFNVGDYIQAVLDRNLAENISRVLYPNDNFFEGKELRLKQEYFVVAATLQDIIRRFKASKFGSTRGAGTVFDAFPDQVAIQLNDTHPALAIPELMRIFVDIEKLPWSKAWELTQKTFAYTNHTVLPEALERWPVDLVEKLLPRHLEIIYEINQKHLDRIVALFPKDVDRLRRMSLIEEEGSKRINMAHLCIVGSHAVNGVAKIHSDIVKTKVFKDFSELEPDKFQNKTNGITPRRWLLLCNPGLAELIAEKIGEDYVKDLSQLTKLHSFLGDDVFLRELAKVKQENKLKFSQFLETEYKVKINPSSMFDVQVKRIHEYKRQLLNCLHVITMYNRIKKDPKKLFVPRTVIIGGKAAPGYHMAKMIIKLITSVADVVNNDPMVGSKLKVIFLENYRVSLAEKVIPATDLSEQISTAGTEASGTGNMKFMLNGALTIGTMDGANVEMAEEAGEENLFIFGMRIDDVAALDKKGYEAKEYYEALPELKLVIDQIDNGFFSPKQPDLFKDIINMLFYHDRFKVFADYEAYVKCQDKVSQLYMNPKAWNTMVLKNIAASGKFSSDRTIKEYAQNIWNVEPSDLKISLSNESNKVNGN
Protocol: Glycogen Phosphorylase a Activity Assay
The effect of compounds on the activity of the active form of glycogen phosphorylase (GPa) was measured in the reverse direction by following the synthesis of glycogen from glucose 1-phosphate by determining the liberation of inorganic phosphate. All the reactions were carried out as duplicate determinations in microtiter plates with 96 wells (Half Area Plates, Costar No 3696), measuring the change in absorption owing to the formation of the reaction product at the wavelength specified hereinafter in a Multiskan Ascent Elisa Reader (Lab Systems, Finland).
In order to measure the GPa enzymic activity in the reverse direction, the general method of Engers et al. (Engers H D, Shechosky S, Madsen N B, Can J Biochem 1970 July; 48(7):746-754) was used to measure the conversion of glucose 1-phosphate into glycogen and inorganic phosphate. […] The baseline glycogen phosphorylase a activity in the absence of test substance was determined by adding 10 μl of buffer solution T (0.1% DMSO). […] After incubation at 45° C. for 60 minutes, the absorption at 820 nm was measured. […]

melting point: 164 °C
inhibition at 10 µM [1]: 87%
SMILES: O=C(O)CCCCCOc1c(Cl)cc(NC(=O)NC(=O)c2ccccc2Cl)cc1Cl [Example 1, 6-{2,6-Dichloro-4-[(2-chlorobenzoyl)ureido]phenoxy}hexanoic Acid]
